Consider 13 molecules from US11306102B2, “1,3-di-substituted ketene compound and application thereof” (BEBETTER MED INC., priority 2017, dated 2022).

The target of the test is T1, PPARδ (Homo sapiens, UniProt Q03181).
T1 construct: expressed in transfected cells; host or cells: Hela cells
T1 sequence (Q03181 1-441): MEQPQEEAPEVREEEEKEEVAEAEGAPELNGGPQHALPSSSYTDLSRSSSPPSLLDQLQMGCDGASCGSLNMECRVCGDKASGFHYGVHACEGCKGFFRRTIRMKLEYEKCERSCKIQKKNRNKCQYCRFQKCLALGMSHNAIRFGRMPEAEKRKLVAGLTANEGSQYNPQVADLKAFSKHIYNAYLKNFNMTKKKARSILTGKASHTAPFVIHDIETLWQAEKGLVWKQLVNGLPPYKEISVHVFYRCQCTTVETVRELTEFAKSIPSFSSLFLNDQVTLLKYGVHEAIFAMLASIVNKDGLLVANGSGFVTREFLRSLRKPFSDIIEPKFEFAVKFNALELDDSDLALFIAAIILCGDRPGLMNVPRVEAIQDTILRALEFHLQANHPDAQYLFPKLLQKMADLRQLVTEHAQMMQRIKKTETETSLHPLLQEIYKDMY
Kind of test: Hela cell/luciferase reporter gene method, PPARδ agonist activity. Type of test: cell-based. The note with it: for EC50: Hela cells, pPPRE3-TK-Luciferase reporter, 24 hrs incubation, read-out: agonistic activity on PPARδ (EC50). The procedure: This example measures the biological activity of a PPAR agonist using the Hela cell/luciferase reporter gene method.
The target plasmids PCMV PPARα (Ampicillin+), PCMV PPARγ (Ampicillin+), PCMV PPARδ (Ampicillin+), and pPPRE3-TK-Luciferase (Ampicillin+) were introduced into DH5a competent cells by heat shock treatment, respectively. After being incubated for 1 hour at 37° C. with shaking (180 rpm), the cells were inoculated on LB agar solid medium containing antibiotic Ampicillin, and invertedly cultured at 37° C. for 12-16 hours. Then the monoclonal colony cultured on the medium was taken and inoculated into LB liquid medium for expanded culture. […] The plasmid obtained by centrifugation was suspended in TE buffer, and the plasmid concentration was measured and the mixture was stored at −20° C. Hela cells in the exponential phase were seeded in 6-well plates (8-10^5 cells/well), and after 6-8 hours of culture, the cells were transfected using Lipofectamine® 3000 Transfection Reagent (Invitrogen; #L3000015). A plasmid containing a PPAR binding site (peroxisome proliferator response element, PPRE) and a firefly luciferase gene (pPPRE3-TK-Luciferase) and PPAR expression vector were co-transfected into a Hela cell with a total amount of plasmid DNA of 2.5 ug (the mass ratio of each PPAR expression vector is pPPRE:PPARα=6:1, pPPRE:PPARδ=8:1, and pPPRE:PPARγ=2:1) to construct a drug screening cell model for PPAR agonists. PPAR was binded to the ligand and then binded to the peroxisome proliferator response element (PPRE), thereby initiating downstream firefly luciferase expression and its expression intensity was directly proportional to the degree of PPAR activation. The cells after 24 hours transfection were prepared into a cell suspension with a cell concentration of […] by a complete culture solution, and seeded into a 96-well plate with 100 ul per well. After overnight culture, the medium was changed to a medium containing 1% FBS. 10 mM candidate compound stock (1000×) were 4-fold diluted in DMSO for 8 points, then supplemented with medium containing 1% FBS to a final concentration of 50 uM (5×) by addition of 25 μl of 5× compound diluent to each well in different concentration gradients and incubated under 37° C., 5% CO2 incubator for 24 hrs. The 96-well plate was taken out and 30 μl of Bright-Glo™ Luciferase Assay System (Promega #E2620) was added to each well. The Luciferase luminescence intensity was measured by a SynergyH1 full-function microplate detector. The obtained data was used to calculate EC50 using GraphPad Prism 5.0 software to determine the biological activity of the compound.
In general terms: A reporter such as luciferase makes a cellular process visible.

As a reminder, the EC50 is the concentration needed to bring the measured effect to its halfway point. For `CSc1ccc2cc(C(=O)/C=C/c3cc(Cl)c(OC(C)(C)C(=O)O)c(Cl)c3)oc2c1` [Compound 100, (E)-2-(2,6-dichloro-4-(3-(6-(methylthio)benzofuran-2-yl)-3-oxoprop-1-en-1-yl)phenoxy)-2-methylpropanoic acid], the EC50 worked out at 87.1 nM.
Consider `CSc1ccc2c(C)c(C(=O)/C=C/c3cc(Cl)c(OC(C)(C)C(=O)O)c(Cl)c3)oc2c1` [Compound 103, (E)-2-(2,6-dichloro-4-(3-(3-methyl-6-(methylthio)benzofuran-2-yl)-3-oxoprop-1-en-1-yl)phenoxy)-2-methylpropanoic acid], for which the EC50 worked out at 164 nM.
Regarding `CCc1c(C(=O)/C=C/c2cc(C)c(OC(C)(C)C(=O)O)c(C)c2)oc2cc(SC)ccc12` [Compound 63, (E)-2-(4-(3-(3-ethyl-6-(methylthio)benzofuran-2-yl)-3-oxoprop-1-en-1-yl)-2,6-dimethylphenoxy)-2-methylpropanoic acid], the EC50 worked out at 205 nM.
For the molecule `CSc1ccc2cc(C(=O)/C=C/c3cc(C)c(OC(C)(C)C(=O)O)c(C)c3)sc2c1` [Compound 81, (E)-2-(2,6-dimethyl-4-(3-(6-(methylthio)benzo[b]thiophen-2-yl)-3-oxoprop-1-en-1-yl)phenoxy)-2-methylpropanoic acid], the concentration for a half-maximal effect (EC50) came to 3640 nM.
With `CSc1ccc(C(=O)/C=C/c2cc(C)c(OC(C)(C)C(=O)O)c(C)c2)c2occc12` [Compound 5, (E)-2-(2,6-dimethyl-4-(3-(4-(methylthio)benzofuran-7-yl)-3-oxoprop-1-en-1-yl)phenoxy)-2-methylpropanoic acid], the EC50 is 36 nM.
On to `Cc1cc(/C=C/C(=O)c2ccc3c(c2)CCS3)cc(C)c1OC(C)(C)C(=O)O` [Compound 36, (E)-2-(4-(3-(2,3-dihydrobenzo[b]thiophen-5-yl)-3-oxoprop-1-en-1-yl)-2,6-dimethylphenoxy)-2-methylpropanoic acid], for which the EC50 was 120 nM.
Take `COc1ccc2cc(C(=O)/C=C/c3cc(C)c(OC(C)(C)C(=O)O)c(C)c3)oc2c1` [Compound 43, (E)-2-(4-(3-(6-methoxybenzofuran-2-yl)-3-oxoprop-1-en-1-yl)-2,6-dimethylphenoxy)-2-methylpropanoic acid]: the EC50 came to 335 nM.
On the same count and under the same terms, then `CCSc1ccc2c(C)c(C(=O)/C=C/c3cc(C)c(OC(C)(C)C(=O)O)c(C)c3)oc2c1` [Compound 74, (E)-2-(4-(3-(6-(ethylthio)-3-methylbenzofuran-2-yl)-3-oxoprop-1-en-1-yl)-2,6-dimethylphenoxy)-2-methylpropanoic acid], with 144 nM.
For `CSc1ccc2cc(C(=O)/C=C/c3cc(C)c(OC(C)(C)C(=O)O)c(C)c3)oc2c1` [Compound 51, (E)-2-(2,6-dimethyl-4-(3-(6-(methylthio)benzofuran-2-yl)-3-oxoprop-1-en-1-yl)phenoxy)-2-methylpropanoic acid], the EC50 was 64.9 nM. In addition, the “increased activity for activation of PPARδ compared with Elafibranor” value (compared with Elafibranor) was determined as 2 fold.
Turning to `CCSc1ccc(C(=O)/C=C/c2cc(C)c(OC(C)(C)C(=O)O)c(C)c2)c2occc12` [Compound 6, (E)-2-(4-(3-(4-(ethylthio)benzofuran-7-yl)-3-oxoprop-1-en-1-yl)-2,6-dimethylphenoxy)-2-methylpropanoic acid], the EC50 amounted to 119 nM.
For `CSc1ccc(C(=O)/C=C/c2cc(C)c(OC(C)(C)C(=O)O)c(C)c2)c2ccoc12` [Compound 27, (E)-2-(2,6-dimethyl-4-(3-(7-(methylthio)benzofuran-4-yl)-3-oxoprop-1-en-1-yl)phenoxy)-2-methylpropanoic acid], the EC50 turned out to be 604 nM.
Consider `CSc1ccc2c(C)c(C(=O)/C=C/c3cc(C)c(OC(C)(C)C(=O)O)c(C)c3)oc2c1` [Compound 62, (E)-2-(2,6-dimethyl-4-(3-(3-methyl-6-(methylthio)benzofuran-2-yl)-3-oxoprop-1-en-1-yl)phenoxy)-2-methylpropanoic acid], for which the EC50 amounted to 210 nM.
The same measure, in the same setting: under `CSc1cccc2oc(C(=O)/C=C/c3cc(C)c(OC(C)(C)C(=O)O)c(C)c3)cc12` [Compound 60, (E)-2-(2,6-dimethyl-4-(3-(4-(methylthio)benzofuran-2-yl)-3-oxoprop-1-en-1-yl)phenoxy)-2-methylpropanoic acid] stands 614 nM.
